Results as given in patent US9012655B2, “Antimicrobial/adjuvant compounds and methods” (Denouamed, Inc., priority 2011, dated 2015).
Values after ≈ are worked out from the molar mass of the structure shown.

Legend:
[1] = tested on: Enterococcus faecium ATCC700221; test: MIC panel of challenge pathogens (CLSI); format: cell-based; settings: Enterococcus faecium ATCC700221; for MIC: read-out: 100% inhibition; for MIC50: read-out: MIC50 (50%); for MIC80: read-out: MIC80 (80%)
Protocol: (§1) The inocula for each bacterial strain were prepared by picking 5-10 distinct colonies from the culture plates and suspending them in the appropriate broth as per Clinical and Laboratory Standards Institute (CLSI) guidelines M07-A8, M24-A or M11-A7 as appropriate. The inoculum was resuspended by vigorous shaking on a vortex mixer for 15 s. The turbidity was then adjusted to McFarland standard 0.5 ([…]). The inoculum was further diluted in the appropriate media for MIC tests to give a final inoculum in each well of 2-8×10^5 CFU/ml. MICs were tested in the appropriate broth in accordance with the appropriate CLSI guidelines.
(§2) A stock solution of each compound was prepared at a concentration of 1.28 g/L in DMSO. The stock was further diluted in the appropriate media to give a top starting concentration of 128 mg/L in the assay. 100 μL of the appropriate media, as per CLSI guidelines, was dispensed into each well in columns 2-12. 200 μL of the each compound solution (at 256 mg/L) was dispensed into each well in column 1. 100 μL aliquots were pipetted from column 1 wells and dispensed into column 2 with a multichannel pipette (±2% coefficient of variation) thus diluting two-fold. 100 μL samples were then pipetted from column 2 wells and dispensed into column 3. The process was repeated through to column 10. The final 100 μL of diluted drug from column 10 was then discarded. Row 11 acted as a positive control (no compound, but organisms added), Row 12 acted as a negative control (no compound, and no organisms added).
(§3) 100 μL of the appropriate inoculum suspension in the appropriate media, as per CLSI guidelines, was added to the appropriate wells. […] All plates were incubated in the dark under aerobic or anaerobic conditions at 30-37° C. for 24-48 hours, according to the appropriate CLSI guideline. Plates were read visually 24-48 hours post inoculation. Endpoints of 100% inhibition were determined (CLSI interpretation endpoints following visual examination).
(§4) MIC50, MIC80, and 100% inhibition results are reported below in μg/mL in the following Tables, indicating each compound tested against a given species and strain: […]

[2] = tested on: Enterococcus faecalis ATCC51299; test: MIC panel of challenge pathogens (CLSI); format: cell-based; settings: Enterococcus faecalis ATCC51299; for MIC: read-out: 100% inhibition; for MIC50: read-out: MIC50 (50%); for MIC80: read-out: MIC80 (80%)
Protocol: as §1, §2, §3, §4

[3] = tested on: Staphylococcus aureus NRS382; test: MIC panel of challenge pathogens (CLSI); format: cell-based; settings: Staphylococcus aureus NRS382; for MIC: read-out: 100% inhibition; for MIC50: read-out: MIC50 (50%); for MIC80: read-out: MIC80 (80%)
Protocol: as §1, §2, §3, §4

[4] = tested on: Staphylococcus aureus EUP MRSA002; test: MIC panel of challenge pathogens (CLSI); format: cell-based; settings: EUPMRSA002, Staphylococcus aureus EUP MRSA002; for MIC: read-out: 100% inhibition; for MIC50: read-out: MIC50 (50%); for MIC80: read-out: MIC80 (80%)
Protocol: as §1, §2, §3, §4

[5] = tested on: Staphylococcus aureus AUR131 007035; test: MIC panel of challenge pathogens (CLSI); format: cell-based; settings: AUR131007035, Staphylococcus aureus AUR131 007035; for MIC: read-out: 100% inhibition; for MIC50: read-out: MIC50 (50%); for MIC80: read-out: MIC80 (80%)
Protocol: as §1, §2, §3, §4

[6] = tested on: Staphylococcus aureus ATCC43300; test: MIC panel of challenge pathogens (CLSI); format: cell-based; settings: Staphylococcus aureus ATCC43300; for MIC: read-out: 100% inhibition; for MIC50: read-out: MIC50 (50%); for MIC80: read-out: MIC80 (80%)
Protocol: as §1, §2, §3, §4

[7] = tested on: Enterococcus faecalis ATCC29212; test: MIC panel of challenge pathogens (CLSI); format: cell-based; settings: Enterococcus faecalis ATCC29212; for MIC: read-out: 100% inhibition; for MIC50: read-out: MIC50 (50%); for MIC80: read-out: MIC80 (80%)
Protocol: as §1, §2, §3, §4

[8] = tested on: Bacillus cereus NCTC6349; test: MIC panel of challenge pathogens (CLSI); format: cell-based; settings: Bacillus cereus NCTC6349; for MIC: read-out: 100% inhibition; for MIC50: read-out: MIC50 (50%); for MIC80: read-out: MIC80 (80%)
Protocol: as §1, §2, §3, §4

[9] = tested on: E. coli D22; test: MIC, NCCLS M7-A6 broth microdilution, E. coli D22; format: cell-based; settings: Escherichia coli, D22, 16 to 20 h, 35 degrees Celsius
In short: (§5)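 Broth microdilution per NCCLS M7-A6 in cation-adjusted Mueller-Hinton broth, doubling dilutions, inoculum 5×10^5 CFU/mL, DMSO controls included. Read after 16–20 h at 35 °C in ambient air; MIC is lowest concentration preventing visible growth.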

[10] = biological target: AcpS enzyme (Escherichia coli, UniProt P24224); test: Measurement of AcpS inhibition ([3H]acetyl-CoA incorporation into apo-ACP); format: biochemical; settings: % activity vs blank-subtracted counts; for activity at 50 µM: test compound 50 uM; for remaining activity at 500 µM: test compound 500 uM
In short: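 Acetyl transfer from [3H]acetyl-CoA (labelled stock mixed with unlabelled acetyl-CoA) onto apo-ACP by E. coli AcpS at RT, started with substrate; aliquots TCA-precipitated at time points up to 60 min. Pellet radioactivity by scintillation; results as % activity of blank-subtracted substrate counts.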

[11] = tested on: Methicillin-Resistant Staph. aureus (MRSA); test: MIC, NCCLS M7-A6 broth microdilution, MRSA; format: cell-based; settings: Staphylococcus aureus, MRSA, 16 to 20 h, 35 degrees Celsius
In short: as §5

Chain of AcpS enzyme (P24224 whole entry): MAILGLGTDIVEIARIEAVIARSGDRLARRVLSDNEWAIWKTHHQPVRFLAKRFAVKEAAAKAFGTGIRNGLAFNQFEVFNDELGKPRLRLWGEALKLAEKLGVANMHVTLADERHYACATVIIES

Question: Which results are given for `Cc1ccc(Cl)cc1-c1cc(-c2nnn[nH]2)sc1-c1cc(Cl)ccc1C` [DNM0508, 5-(4,5-Bis(5-chloro-2-methylphenyl)thiophen-2-yl)-1H-tetrazole]?
Answer: MIC [1]: 1 µg/mL (≈ 2.49 µM); MIC50 [1]: 1 µg/mL (≈ 2.49 µM); MIC80 [1]: 1 µg/mL (≈ 2.49 µM); MIC [2]: 2 µg/mL (≈ 4.98 µM); MIC50 [2]: 2 µg/mL (≈ 4.98 µM); MIC80 [2]: 2 µg/mL (≈ 4.98 µM); MIC [3]: 1 µg/mL (≈ 2.49 µM); MIC50 [3]: 1 µg/mL (≈ 2.49 µM); MIC80 [3]: 1 µg/mL (≈ 2.49 µM); MIC [4]: 1 µg/mL (≈ 2.49 µM); MIC50 [4]: 0.5 µg/mL (≈ 1.25 µM); MIC80 [4]: 1 µg/mL (≈ 2.49 µM); MIC [5]: 1 µg/mL (≈ 2.49 µM); MIC50 [5]: 1 µg/mL (≈ 2.49 µM); MIC80 [5]: 1 µg/mL (≈ 2.49 µM); MIC [6]: 1 µg/mL (≈ 2.49 µM); MIC50 [6]: 1 µg/mL (≈ 2.49 µM); MIC80 [6]: 1 µg/mL (≈ 2.49 µM); MIC [7]: 2 µg/mL (≈ 4.98 µM); MIC50 [7]: 2 µg/mL (≈ 4.98 µM); MIC80 [7]: 2 µg/mL (≈ 4.98 µM); MIC [8]: 0.5 µg/mL (≈ 1.25 µM); MIC50 [8]: 0.5 µg/mL (≈ 1.25 µM); MIC80 [8]: 0.5 µg/mL (≈ 1.25 µM); MIC [9]: > 125 µM; activity at 50 µM [10]: 44.9%; remaining activity at 500 µM [10]: 0.1%; MIC [11]: 4 µM (≈ 1.61 µg/mL)

Question: What does the source list for `Fc1ccc(-c2cc(-c3nnn[nH]3)sc2-c2ccc(F)c3ccccc23)c2ccccc12` [DNM0537, 5-(4,5-Bis(4-fluoronaphthalen-1-yl)thiophen-2-yl)-1H-tetrazole]?
Answer: MIC [1]: 0.5 µg/mL (≈ 1.14 µM); MIC50 [1]: 0.5 µg/mL (≈ 1.14 µM); MIC80 [1]: 0.5 µg/mL (≈ 1.14 µM); MIC [2]: 0.5 µg/mL (≈ 1.14 µM); MIC50 [2]: 0.5 µg/mL (≈ 1.14 µM); MIC80 [2]: 0.5 µg/mL (≈ 1.14 µM); MIC [3]: ≤ 0.25 µg/mL; MIC50 [3]: ≤ 0.25 µg/mL; MIC80 [3]: ≤ 0.25 µg/mL; MIC [4]: 1 µg/mL (≈ 2.27 µM); MIC50 [4]: 1 µg/mL (≈ 2.27 µM); MIC80 [4]: 1 µg/mL (≈ 2.27 µM); MIC [5]: ≤ 0.25 µg/mL; MIC50 [5]: ≤ 0.25 µg/mL; MIC80 [5]: ≤ 0.25 µg/mL; MIC [6]: 1 µg/mL (≈ 2.27 µM); MIC50 [6]: 0.5 µg/mL (≈ 1.14 µM); MIC80 [6]: 1 µg/mL (≈ 2.27 µM); MIC [7]: 1 µg/mL (≈ 2.27 µM); MIC50 [7]: 0.5 µg/mL (≈ 1.14 µM); MIC80 [7]: 1 µg/mL (≈ 2.27 µM); MIC [8]: ≤ 0.25 µg/mL; MIC50 [8]: ≤ 0.25 µg/mL; MIC80 [8]: ≤ 0.25 µg/mL; MIC [9]: 125 µM (≈ 55.1 µg/mL); activity at 50 µM [10]: 1.28%; remaining activity at 500 µM [10]: 0.14%; MIC [11]: 2 µM (≈ 0.881 µg/mL)

Question: How did the MIC [1] turn out when `Cc1cc(Cl)ccc1-c1cc(-c2nnn[nH]2)sc1-c1ccc(Cl)cc1C` [DNM0488, 5-(4,5-Bis(4-chloro-2-methylphenyl)thiophen-2-yl)-1H-tetrazole] was run?
Answer: Its MIC is 0.5 µg/mL (≈ 1.25 µM).

Question: And the MIC50 [1]?
Answer: Its MIC50 is 0.25 µg/mL (≈ 0.623 µM).

Question: What about the MIC80 [1] of the same compound?
Answer: The MIC80 was 0.25 µg/mL (≈ 0.623 µM).

Question: What about the MIC [2] of the same compound?
Answer: Its MIC is 0.5 µg/mL (≈ 1.25 µM).

Question: And the MIC50 [2]?
Answer: The MIC50 was 0.5 µg/mL (≈ 1.25 µM).

Question: And the MIC80 [2]?
Answer: Its MIC80 is 0.5 µg/mL (≈ 1.25 µM).

Question: What about the MIC [3] of the same compound?
Answer: The MIC was 0.5 µg/mL (≈ 1.25 µM).

Question: What about the MIC50 [3] of the same compound?
Answer: The MIC50 was 0.5 µg/mL (≈ 1.25 µM).

Question: And the MIC80 [3]?
Answer: Its MIC80 is 0.5 µg/mL (≈ 1.25 µM).

Question: What about the MIC [4] of the same compound?
Answer: Its MIC is 1 µg/mL (≈ 2.49 µM).

Question: What about the MIC50 [4] of the same compound?
Answer: The MIC50 was 0.5 µg/mL (≈ 1.25 µM).

Question: And the MIC80 [4]?
Answer: Its MIC80 is 1 µg/mL (≈ 2.49 µM).

Question: What about the MIC [5] of the same compound?
Answer: The MIC was 0.5 µg/mL (≈ 1.25 µM).

Question: And the MIC50 [5]?
Answer: Its MIC50 is 0.5 µg/mL (≈ 1.25 µM).

Question: What about the MIC80 [5] of the same compound?
Answer: The MIC80 was 0.5 µg/mL (≈ 1.25 µM).

Question: What about the MIC [6] of the same compound?
Answer: Its MIC is 0.5 µg/mL (≈ 1.25 µM).

Question: What about the MIC50 [6] of the same compound?
Answer: Its MIC50 is 0.5 µg/mL (≈ 1.25 µM).

Question: What about the MIC80 [6] of the same compound?
Answer: Its MIC80 is 0.5 µg/mL (≈ 1.25 µM).

Question: And the MIC [7]?
Answer: Its MIC is 0.5 µg/mL (≈ 1.25 µM).

Question: And the MIC50 [7]?
Answer: Its MIC50 is 0.5 µg/mL (≈ 1.25 µM).

Question: What about the MIC80 [7] of the same compound?
Answer: The MIC80 was 0.5 µg/mL (≈ 1.25 µM).

Question: And the MIC [8]?
Answer: Its MIC is at most 0.25 µg/mL.

Question: And the MIC50 [8]?
Answer: Its MIC50 is at most 0.25 µg/mL.

Question: And the MIC80 [8]?
Answer: The MIC80 was at most 0.25 µg/mL.

Question: What about the MIC [9] of the same compound?
Answer: Its MIC is 125 µM (≈ 50.2 µg/mL).

Question: And the activity at 50 µM [10]?
Answer: Its activity at 50 µM is 11.5%.

Question: And the remaining activity at 500 µM [10]?
Answer: Its remaining activity at 500 µM is 0.32%.

Question: What about the MIC [11] of the same compound?
Answer: Its MIC is 4 µM (≈ 1.61 µg/mL).
